Experimental data reported in PMC2761990 (Molecular cancer therapeutics, 2009).

How the values were obtained:
[1] = tested on: p53 (S15) phosphorylation; experiment: IR-induced p53; assay type: cell-based, human; details: for inhibition of IR-induced p53 (S15) phosphorylation: 1 h after IR
γ-H2AX (S139) = experiment: IR-induced H2AX; assay type: cell-based, human; details: for γ-H2AX levels: 10 Gy
AKT T308 phosphorylation = experiment: Radiation-induced AKT T308 phosphorylation; assay type: cell-based; details: Fig. S1B
[2] = tested on: (S136) BAD phosphorylation; assay type: cell-based; details: in vivo and in vitro (Fig. S1C, D)
[3] = tested on: (S9) GSK3β phosphorylation; assay type: cell-based; details: in vivo and in vitro (Fig. S1C, D)
[4] = tested on: panel of 60 protein kinases; details: cited from earlier work
PI3K (p110β/p85α) = PI3K (p110β/p85α) (Homo sapiens, UniProt P42338); experiment: PI3-Kinase HTRF assay; assay type: biochemical; details: read-out: PI3K (p110β/p85α) inhibited
PI3K (p120γ) = PI3K (p120γ) (Homo sapiens, UniProt P48736); experiment: PI3-Kinase HTRF assay; assay type: biochemical; details: read-out: PI3K (p120γ) inhibited
PI3K (p110δ/p85α) = PI3K (p110δ/p85α) (Homo sapiens, UniProt O00329); experiment: PI3-Kinase HTRF assay; assay type: biochemical; details: read-out: PI3K (p110δ/p85α) inhibited
mTOR = mTOR (Homo sapiens, UniProt P42345); experiment: Millipore KinaseProfiler, mTOR; assay type: biochemical; details: 1 μM
[5] = tested on: panel of 229 protein kinases; experiment: Millipore KinaseProfiler panel; assay type: biochemical; details: 1 μM; Table S1
[6] = tested on: CHK2 phosphorylation (T68); experiment: IR-induced CHK2; assay type: cell-based, human; details: U1242, 3 μM, 5 Gy, up to 1 h after irradiation
p53 phosphorylation = experiment: IR-induced p53 phosphorylation, western blot, U1242 cells; assay type: cell-based, human; details: U1242, 3 μM, 5 Gy
γ-H2AX = experiment: IR-induced γ-H2AX, western blot, U1242 cells; assay type: cell-based, human; details: U1242, 3 μM, 5 Gy, especially at times ≤15 min
U1242 cells [7] = experiment: Radiosurvival, Trypan blue/FACS assay, U1242; assay type: cell-based, human
[8] = tested on: h-TERT-immortalized normal fibroblasts; experiment: Radiosurvival, Trypan blue/FACS assay, normal fibroblasts; assay type: cell-based, human; details: 10 μM, 7 days post-IR
[9] = tested on: h-TERT-immortalized A-T fibroblasts; experiment: Radiosurvival, Trypan blue/FACS assay, A-T fibroblasts; assay type: cell-based, human; details: 10 μM, 7 days post-IR
[10] = tested on: AKT (S473) phosphorylation; experiment: AKT; assay type: cell-based, human
[11] = tested on: AKT (S473) phosphorylation; experiment: AKT; assay type: cell-based, human; details: U1242, 3 μM, 5 Gy
[12] = tested on: AKT (S473) phosphorylation; experiment: Insulin-stimulated AKT phosphorylation, normal fibroblasts; assay type: cell-based, human; details: NFs
[13] = tested on: AKT (S473) phosphorylation; experiment: Insulin-stimulated AKT phosphorylation, A-T fibroblasts; assay type: cell-based, human; details: A-T cells, in response to insulin
U87 cells [14] = experiment: Migration assay through 8 μm pore membranes, U87; assay type: cell-based; details: Homo sapiens, U-87 MG, 6 h, read-out: inhibition of migration
U87 cells [15] = experiment: Invasion through matrigel, U87; assay type: cell-based; details: Homo sapiens, U-87 MG, 48 h, read-out: inhibition of invasion through matrigel
U1242 cells [16] = experiment: Scratch; assay type: cell-based, human
U1242 cells [17] = experiment: Invasion through matrigel inserts, U1242; assay type: cell-based; details: Homo sapiens, 48 h, read-out: inhibition of invasion
U1242 cells [18] = experiment: Cell growth, AlamarBlue, U1242; assay type: cell-based, human; details: U1242, 3 μM, over a 5 day period
U87 cells [19] = experiment: Radiosurvival, Trypan blue/FACS assay, U87; assay type: cell-based, human; details: U87, 3 μM, 4 Gy, alone

Chain of PI3K (p110δ/p85α) (O00329 whole entry): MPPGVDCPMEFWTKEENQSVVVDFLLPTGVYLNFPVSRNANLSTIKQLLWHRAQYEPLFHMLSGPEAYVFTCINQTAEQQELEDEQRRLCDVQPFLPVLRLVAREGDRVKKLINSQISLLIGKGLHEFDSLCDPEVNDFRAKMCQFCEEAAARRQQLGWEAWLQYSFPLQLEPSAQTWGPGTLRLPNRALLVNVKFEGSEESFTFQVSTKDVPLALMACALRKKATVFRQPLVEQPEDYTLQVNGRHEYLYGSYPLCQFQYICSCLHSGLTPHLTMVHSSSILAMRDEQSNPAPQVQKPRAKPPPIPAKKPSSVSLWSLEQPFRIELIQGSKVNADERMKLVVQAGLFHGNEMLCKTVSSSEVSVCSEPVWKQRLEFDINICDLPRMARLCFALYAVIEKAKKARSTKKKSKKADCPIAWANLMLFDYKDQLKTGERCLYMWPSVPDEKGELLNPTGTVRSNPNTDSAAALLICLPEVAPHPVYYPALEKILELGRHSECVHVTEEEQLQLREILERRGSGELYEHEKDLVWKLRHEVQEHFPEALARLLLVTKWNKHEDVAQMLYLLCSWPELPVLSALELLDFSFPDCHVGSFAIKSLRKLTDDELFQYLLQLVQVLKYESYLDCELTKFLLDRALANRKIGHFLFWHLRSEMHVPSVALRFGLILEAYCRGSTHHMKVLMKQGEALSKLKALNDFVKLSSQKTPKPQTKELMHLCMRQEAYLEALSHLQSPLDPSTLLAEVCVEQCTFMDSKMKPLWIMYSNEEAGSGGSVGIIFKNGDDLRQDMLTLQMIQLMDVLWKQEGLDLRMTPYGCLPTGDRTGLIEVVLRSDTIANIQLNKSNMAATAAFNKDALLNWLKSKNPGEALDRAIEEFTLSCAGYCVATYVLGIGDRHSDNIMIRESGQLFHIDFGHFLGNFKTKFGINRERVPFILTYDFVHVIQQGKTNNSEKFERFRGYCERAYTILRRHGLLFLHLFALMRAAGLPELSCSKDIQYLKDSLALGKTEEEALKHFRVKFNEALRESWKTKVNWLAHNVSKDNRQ
Chain of PI3K (p110δ/p85α) (P27986 whole entry partner): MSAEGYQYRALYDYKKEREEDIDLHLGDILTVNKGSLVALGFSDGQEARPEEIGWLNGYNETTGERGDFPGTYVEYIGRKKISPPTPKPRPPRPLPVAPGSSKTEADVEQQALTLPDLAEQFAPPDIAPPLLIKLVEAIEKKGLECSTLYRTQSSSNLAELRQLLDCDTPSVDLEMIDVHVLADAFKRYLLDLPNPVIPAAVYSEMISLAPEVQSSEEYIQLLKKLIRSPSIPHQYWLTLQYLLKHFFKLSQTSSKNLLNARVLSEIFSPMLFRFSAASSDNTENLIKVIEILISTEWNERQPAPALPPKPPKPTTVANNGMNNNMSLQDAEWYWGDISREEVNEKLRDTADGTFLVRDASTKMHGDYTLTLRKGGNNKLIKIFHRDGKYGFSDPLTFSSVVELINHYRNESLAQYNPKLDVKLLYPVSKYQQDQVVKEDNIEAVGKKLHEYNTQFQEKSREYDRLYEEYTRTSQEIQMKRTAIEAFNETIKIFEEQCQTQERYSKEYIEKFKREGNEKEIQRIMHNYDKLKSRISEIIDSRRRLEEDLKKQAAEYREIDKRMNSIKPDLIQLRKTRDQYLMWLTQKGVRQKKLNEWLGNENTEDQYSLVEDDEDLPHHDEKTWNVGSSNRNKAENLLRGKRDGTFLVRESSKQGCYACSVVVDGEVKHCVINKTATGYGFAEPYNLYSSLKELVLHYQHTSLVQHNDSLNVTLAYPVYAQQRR
Chain of PI3K (p110β/p85α) (P42338 whole entry): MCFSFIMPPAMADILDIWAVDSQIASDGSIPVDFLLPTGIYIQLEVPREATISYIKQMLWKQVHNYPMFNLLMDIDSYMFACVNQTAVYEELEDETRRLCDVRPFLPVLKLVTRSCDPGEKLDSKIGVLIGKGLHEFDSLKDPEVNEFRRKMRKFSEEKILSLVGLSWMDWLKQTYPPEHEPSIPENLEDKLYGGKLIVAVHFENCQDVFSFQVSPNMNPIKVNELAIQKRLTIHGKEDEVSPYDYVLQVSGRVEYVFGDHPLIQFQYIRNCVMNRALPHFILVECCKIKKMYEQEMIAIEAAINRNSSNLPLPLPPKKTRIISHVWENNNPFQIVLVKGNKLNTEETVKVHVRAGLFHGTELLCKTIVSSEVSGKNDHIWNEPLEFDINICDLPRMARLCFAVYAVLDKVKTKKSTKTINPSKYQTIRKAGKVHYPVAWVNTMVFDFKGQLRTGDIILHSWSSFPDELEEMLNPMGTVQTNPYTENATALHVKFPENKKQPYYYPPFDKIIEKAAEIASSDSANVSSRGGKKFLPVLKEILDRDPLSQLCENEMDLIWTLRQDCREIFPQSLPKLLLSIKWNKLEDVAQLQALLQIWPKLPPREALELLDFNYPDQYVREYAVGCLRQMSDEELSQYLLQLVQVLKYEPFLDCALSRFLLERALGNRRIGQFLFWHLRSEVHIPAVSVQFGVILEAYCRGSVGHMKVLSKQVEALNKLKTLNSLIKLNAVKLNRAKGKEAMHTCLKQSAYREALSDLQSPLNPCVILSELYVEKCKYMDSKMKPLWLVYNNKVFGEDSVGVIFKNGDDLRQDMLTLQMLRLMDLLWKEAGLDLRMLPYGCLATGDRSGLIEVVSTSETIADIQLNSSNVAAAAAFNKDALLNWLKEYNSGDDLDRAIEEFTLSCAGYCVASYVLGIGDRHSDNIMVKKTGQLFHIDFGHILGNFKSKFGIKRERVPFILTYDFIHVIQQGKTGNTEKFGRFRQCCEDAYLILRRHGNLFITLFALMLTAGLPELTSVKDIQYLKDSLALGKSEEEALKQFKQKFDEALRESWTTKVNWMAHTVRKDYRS
Chain of PI3K (p110β/p85α) (P27986 whole entry partner): as the sequence (P27986 whole entry partner) above
Chain of PI3K (p120γ) (P48736 whole entry): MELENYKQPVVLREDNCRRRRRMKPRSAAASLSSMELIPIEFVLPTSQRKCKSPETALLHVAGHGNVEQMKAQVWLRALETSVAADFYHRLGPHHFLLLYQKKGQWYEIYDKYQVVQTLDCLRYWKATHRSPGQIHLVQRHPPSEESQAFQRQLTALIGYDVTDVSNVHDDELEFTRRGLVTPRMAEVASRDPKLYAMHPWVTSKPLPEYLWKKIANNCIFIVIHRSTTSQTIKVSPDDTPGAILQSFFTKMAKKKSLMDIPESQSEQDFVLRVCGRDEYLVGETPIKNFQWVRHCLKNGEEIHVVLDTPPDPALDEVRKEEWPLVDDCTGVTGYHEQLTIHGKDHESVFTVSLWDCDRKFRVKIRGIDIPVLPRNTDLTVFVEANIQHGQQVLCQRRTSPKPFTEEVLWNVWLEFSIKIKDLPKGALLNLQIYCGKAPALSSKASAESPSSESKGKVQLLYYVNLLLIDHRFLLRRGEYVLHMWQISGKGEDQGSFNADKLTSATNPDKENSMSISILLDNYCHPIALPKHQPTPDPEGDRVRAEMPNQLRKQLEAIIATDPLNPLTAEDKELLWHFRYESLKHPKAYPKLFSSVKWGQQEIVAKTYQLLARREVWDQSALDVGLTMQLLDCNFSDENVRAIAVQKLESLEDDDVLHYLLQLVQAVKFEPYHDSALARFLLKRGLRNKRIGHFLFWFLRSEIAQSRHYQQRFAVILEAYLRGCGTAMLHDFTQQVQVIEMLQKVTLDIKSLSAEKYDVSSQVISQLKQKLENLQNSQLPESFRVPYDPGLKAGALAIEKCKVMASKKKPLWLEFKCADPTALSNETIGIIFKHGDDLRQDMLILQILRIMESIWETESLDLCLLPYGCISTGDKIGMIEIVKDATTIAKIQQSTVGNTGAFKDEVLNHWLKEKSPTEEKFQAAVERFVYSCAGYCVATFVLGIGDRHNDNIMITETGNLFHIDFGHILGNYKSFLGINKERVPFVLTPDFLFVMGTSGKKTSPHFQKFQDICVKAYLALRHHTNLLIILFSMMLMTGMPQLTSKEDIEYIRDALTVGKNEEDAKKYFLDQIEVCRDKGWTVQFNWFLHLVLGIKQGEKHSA

## O=c1cc(-c2cccc3c2Sc2ccccc2S3)oc(N2CCOCC2)c1 [KU-55933, reference compound]
[1]; U87, 3 μM, 10 Gy
  inhibition of IR-induced p53 (S15) phosphorylation: not at 3 μM
[1]; U87, 10 μM, 10 Gy
  inhibition of IR-induced p53 (S15) phosphorylation: completely inhibited
γ-H2AX (S139); U87, 10 μM, 1 h after irradiation
  γ-H2AX levels: only partly reduced
AKT T308 phosphorylation
  effect on radiation-induced AKT T308 phosphorylation: attenuated
[2]
  effect on phosphorylation of (S136) BAD: reduced
[3]
  effect on phosphorylation of (S9) GSK3β: reduced
[4]
  specificity using a panel of 60 protein kinases: highly specific for the ATM kinase

## C[C@@H]1CN(CC(=O)Nc2ccc3c(c2)Cc2cccc(-c4cc(=O)cc(N5CCOCC5)o4)c2S3)C[C@H](C)O1 [KU-60019, 2-((2R, 6S)-2,6-Dimethyl-morpholin-4-yl)-N-[5-(6-morpholin-4-yl-4-oxo-4H-pyran-2-yl)-9H-thioxanthen-2-yl]-acetamide]
PI3K (p110β/p85α)
  inhibition at 1 µM: 9%
PI3K (p120γ)
  inhibition at 1 µM: 3%
PI3K (p110δ/p85α)
  inhibition at 1 µM: 27%
mTOR
  mTOR inhibition: not inhibited
[5]
  non-specific target effects against a panel of 229 protein kinases: little to no non-specific target effects
[1]; U87, 1 μM, 10 Gy
  inhibition of IR-induced p53 (S15) phosphorylation: partial inhibited
[1]; U87, 1 μM, after IR
  p53 (S15) phosphorylation blocked: > 70%
[1]; U87, 3 μM, 10 Gy, 15 min post-IR
  inhibition of p53 phosphorylation: completely inhibited
[1]; U87, 3 μM, 10 Gy
  inhibition of IR-induced p53 (S15) phosphorylation: completely inhibited
γ-H2AX (S139); U87, 3 μM, 15 min
  γ-H2AX levels: reduced significantly
γ-H2AX (S139); U87, 10 Gy, 1 h after irradiation
  effect on H2AX phosphorylation: little to no effect
[6]
  inhibition of radiation-induced CHK2 phosphorylation (T68): completely inhibited
p53 phosphorylation
  inhibition of p53 phosphorylation: completely inhibited
γ-H2AX
  inhibition of γ-H2AX: partially inhibited
U1242 cells [7]; U1242, 3 μM, 4 days post-IR, level between that of U87 cells treated with 1 and 10 μM
  radiosensitization: radiosensitized
[8]
  radiosensitization: radiosensitized
[9]
  radiosensitization: not radiosensitized
[10]; U87, 3 μM, 5 Gy
  effect on radiation-induced increase in phospho-AKT (S473): almost completely blocked
[10]; U87, 3 μM, drug alone
  earliest time of effect on S473 dephosphorylation after addition of drug: 5 min
[10]; U87, insulin-stimulated
  reduction in AKT phosphorylation: ~ 50%
[10]; pooled data from several independent experiments (Fig. S1A)
  reduction of basal AKT S473 phosphorylation: 70%
[11]
  effect on basal and radiation-induced AKT S473 phosphorylation: almost completely abrogated
[12]
  reduction of AKT phosphorylation: ~ 45%
[13]
  effect on S473 phosphorylation: did not affect
[2]
  effect on phosphorylation of (S136) BAD: reduced
[3]
  effect on phosphorylation of (S9) GSK3β: reduced
U87 cells [14]
  inhibition at 10 µM: ≥ 70%
U87 cells [15]
  inhibition at 3 µM: ~60%
U1242 cells [16]; Homo sapiens, read-out: inhibition of migration (scratch assay)
  inhibition at 3 µM: ≥ 50%
U1242 cells [16]; U1242, 3 μM, at 10 h
  rate of gap closure slower than untreated: 50%
U1242 cells [17]
  inhibition at 3 µM: ~60%
U1242 cells [18]
  suppression of growth: ~ 40%

## C=C1[C@@H](O)[C@@H]2O[C@]3(CC[C@H](/C=C/[C@@H](C)[C@@H]4CC(C)=C[C@@]5(O[C@H](C[C@@](C)(O)C(=O)O)CC[C@H]5O)O4)O3)CC[C@H]2O[C@@H]1[C@@H](O)C[C@H](C)[C@H]1O[C@@]2(CCCCO2)CC[C@H]1C [OA, okadaic acid, reference compound]
[10]; U87, OA by itself
  increase of AKT S473 phosphorylation compared to untreated control: > 2 fold
[10]; U87, ≥30 nM OA with KU-60019 3 μM, 1 h
  reduction of the effect of KU-60019 on S473 phosphorylation: > 50%

## O=C(NOCC1CC1)c1ccc(F)c(F)c1Nc1ccc(I)cc1Cl [PD184352, reference compound]
U87 cells [19]
  effect on IR-induced killing: small but significant effect
U1242 cells [7]; U1242, alone (Fig. S5)
  effect on radiosurvival: slightly radioprotective
